From paper PMC7070818 (Clinical and Translational Science, 2019)
Like-named read-outs stand apart in the source and are kept apart here.

Columns and labels:
[1] = fasted state; cited from earlier work
[2] = cited from earlier work
[3] = type: in vivo, human; conditions: for AUC(0-t): AUC0–23 hours; for AUC(0-inf): AUC0–∞; for Tmax: median (range)
[4] = test system: Bruton's tyrosine kinase (BTK); conditions: cited from earlier work
[5] = male, human, plasma, oral, 140 mg, placebo phase, 140‐mg ibrutinib dose, geometric mean (geometric CV)
[6] = male, human, plasma, oral, itraconazole phase, dose‐adjusted to a 140‐mg dose, geometric mean (geometric CV)
[7] = male, human, plasma, oral, itraconazole phase, unadjusted, 15‐mg ibrutinib dose, geometric mean (geometric CV)
[8] = itraconazole phase (15 mg, unadjusted) vs placebo phase (140 mg)
[9] = itraconazole phase (dose‐adjusted to 140 mg) vs placebo phase
[10] = itraconazole phase vs placebo phase
[11] = itraconazole phase, dose‐adjusted to a 140‐mg dose, geometric mean (geometric CV)
[12] = itraconazole phase, unadjusted, 15‐mg ibrutinib dose, geometric mean (geometric CV)
[13] = placebo phase, 140‐mg ibrutinib dose, geometric mean (geometric CV)
[14] = unadjusted, 15 mg ibrutinib during itraconazole, 140 mg during placebo

Compound: C=CC(=O)N1CCC[C@@H](n2nc(-c3ccc(Oc4ccccc4)cc3)c3c(N)ncnc32)C1 [Ibrutinib, ibrutinib, reference compound]
- Mean oral bioavailability [1]: about 3%
- Enhancement of bioavailability by food [2]: about twofold
- Increase of AUC by ketoconazole ([2]; fasted state, healthy volunteers): 24 fold
- Increase of AUC by grapefruit juice ([2]; fed conditions, healthy adults): 2.2 fold
- Cmax ([3]; male, human, plasma, oral): 192 ng/mL
- AUC(0-t) [3, 5]: 74.4 ng·h/mL
- AUC(0-inf) [3, 5]: 76.5 ng·h/mL
- AUC(0-t) [3, 6]: 755 ng·h/mL
- AUC(0-t) [3, 7]: 80.9 ng·h/mL
- AUC(0-inf) [3, 6]: 764 ng·h/mL
- AUC(0-inf) [3, 7]: 81.9 ng·h/mL
- Cmax ([3]; male, human, plasma, po): 20.6 ng/mL
- Cmax ([3]; male, human, plasma, po, 140 mg): 22 ng/mL

Compound: Nc1ncnc2c1c(-c1ccc(Oc3ccccc3)cc1)nn2[C@@H]1CCCN(C(=O)C(O)CO)C1 (stereo partly shown) [PCI‐45227]
- Inhibitory activity toward BTK relative to parent ibrutinib [4]: about 15 times lower
- AUC0–23 hours geometric mean ratio (90% CI) [3, 8]: 0.10 (0.08, 0.11)
- AUC0–∞ geometric mean ratio (90% CI) [3, 8]: 0.10 (0.09, 0.12)
- Cmax geometric mean ratio (90% CI) [3, 8]: 0.07 (0.06, 0.09)
- AUC0–23 hours geometric mean ratio (90% CI) [3, 9]: 0.91 (0.78, 1.07)
- AUC0–∞ geometric mean ratio (90% CI) [3, 9]: 0.97 (0.82, 1.16)
- Cmax geometric mean ratio (90% CI) [3, 9]: 0.68 (0.59, 0.79)
- t1/2 geometric mean ratio (90% CI) ([3]; itraconazole phase (dose‐adjusted) column vs placebo phase): 1.3 (1.10, 1.46)
- t1/2 ([3]; itraconazole phase (dose‐adjusted) column, geometric mean (geometric CV)): 8.1 (0.28) hour
- PCI‐45227/Ibrutinib AUC0‐∞ ratio, geometric mean ratio (90% CI) [3, 10]: 0.10 (0.08, 0.12)
- t1/2 geometric mean ratio (90% CI) [3, 10]: 1.3 (1.10, 1.46)
- AUC0–23 hours [3, 11]: 214.3 (0.36) ng·hour/mL
- AUC0–∞ [3, 11]: 256.0 (0.42) ng·hour/mL
- Cmax [3, 11]: 21.2 (0.28) ng/mL
- AUC0–23 hours [3, 12]: 23.0 (0.36) ng·hour/mL
- AUC0–∞ [3, 12]: 27.4 (0.42) ng·hour/mL
- t1/2 ([3]; itraconazole phase, 15‐mg ibrutinib dose, geometric mean (geometric CV)): 8.1 (0.28) hour
- Tmax ([3]; itraconazole phase, 15‐mg ibrutinib dose): 3 (1.5–4) hour
- PCI‐45227/Ibrutinib AUC0‐∞ ratio ([3]; itraconazole phase, geometric mean (geometric CV)): 0.34 (0.28)
- PCI‐45227/Ibrutinib AUC0–∞ ratio during itraconazole, relative to control ([3]; itraconazole vs placebo): 10 % of control
- AUC0–23 hours [3, 13]: 235.2 (0.43) ng·hour/mL
- AUC0–∞ [3, 13]: 262.8 (0.45) ng·hour/mL
- t1/2 [3, 13]: 6.4 (0.27) hour
- Tmax ([3]; placebo phase, 140‐mg ibrutinib dose): 3 (1.5–4) hour
- PCI‐45227/Ibrutinib AUC0‐∞ ratio ([3]; placebo phase, geometric mean (geometric CV)): 3.4 (0.57)
- AUC0‐∞ during itraconazole phase relative to placebo phase [3, 14]: 10%
- Cmax during itraconazole phase relative to placebo phase [3, 14]: 7%
